The test system of assay [1] is IRF pathway, THP1-Dual™ cells. Briefly: STING reporter assay in THP1-Dual cells, IRF pathway (Lucia luciferase, QUANTI-Luc). The assay is classed as cell-based, human. The settings on record: Homo sapiens, THP1-Dual, 20 h, THP1-Dual cells, 10% human plasma, 20 hours; Lucia luciferase; 100% activation = 100 μM cGAMP; read-out: IRF (EC50 μM). The gist of the method:
(§1)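 THP-1-derived dual-reporter cells treated with serially diluted compounds (final top concentration 100 μM) for 20 h at 37° C. NF-κB read as SEAP via QUANTI-Blue at OD620; IRF read as Lucia luminescence via QUANTI-Luc after 5 min. 100% activation set by 100 μM cGAMP, baseline by DMSO.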
(In general: A reporter such as luciferase makes a cellular process visible.)

For assay [2], the system named is NF-κB pathway, THP1-Dual™ cells. As to the kind of experiment: STING reporter assay in THP1-Dual cells, NF-κB pathway (SEAP, QUANTI-Blue). The assay is classed as cell-based, human. The settings on record: Homo sapiens, THP1-Dual, 20 h, THP1-Dual cells, 10% human plasma, 20 hours; SEAP; 100% activation = 100 μM cGAMP; read-out: NFkB (EC50 μM). The gist of the method:
as §1

This is an account of results in patent publication US12673954B2 (BRISTOL-MYERS SQUIBB COMPANY, priority 2021, dated 2026).

Structures are written as SMILES.

One may read the EC50 as the concentration giving half of the maximal effect. For the molecule `COC(=O)c1cc(C)cc2c(Cl)c(CNC(=O)c3cnn4cccnc34)oc12` [EXAMPLE 117, Methyl 3-chloro-5-methyl-2-((pyrazolo[1,5-a]pyrimidine-3-carboxamido)methyl)benzofuran-7-carboxylate], the EC50 in assay [1] was 0.2 µM; in assay [2] it was 0.28 µM.

Consider `COC(=O)c1cc(C)cc2c(Cl)c(CNC(=O)c3cncc4cccnc34)oc12` [EXAMPLE 118, methyl 2-((1,6-naphthyridine-8-carboxamido)methyl)-3-chloro-5-methylbenzofuran-7-carboxylate], for which the EC50 in assay [1] was 0.3 µM; in assay [2], 0.37 µM.

As to `COC(=O)c1cc(C)cc2c(Cl)c(CNC(=O)c3cnn4cc(C)cnc34)oc12` [EXAMPLE 119, Methyl 3-chloro-5-methyl-2-((6-methylpyrazolo[1,5-a]pyrimidine-3-carboxamido)methyl)benzofuran-7-carboxylate], the EC50 in assay [1] and in assay [2] was 2.6 µM each time.

`COC(=O)c1cc(C)cc2c(Br)c(CNC(=O)c3cnn4cccnc34)oc12` [EXAMPLE 121, Methyl 3-bromo-5-methyl-2-((pyrazolo[1,5-a]pyrimidine-3-carboxamido)methyl)benzofuran-7-carboxylate]: the EC50 in assay [1] was 0.4 µM; in assay [2], 0.28 µM.

For the molecule `COC(=O)c1cc(C)cc2c(C)c(CNC(=O)c3cnn4cccnc34)oc12` [EXAMPLE 122, Methyl 3,5-dimethyl-2-((pyrazolo[1,5-a]pyrimidine-3-carboxamido)methyl)benzofuran-7-carboxylate], the EC50 was 0.53 µM in assay [1] and 0.54 µM in assay [2].

For `COC(=O)c1cc(C)cc2c(C(F)(F)F)c(CNC(=O)c3cnn4cccnc34)oc12` [EXAMPLE 123, Methyl 5-methyl-2-((pyrazolo[1,5-a]pyrimidine-3-carboxamido)methyl)-3-(trifluoromethyl)benzofuran-7-carboxylate], the EC50 in assay [1] is 4.3 µM; in assay [2], 5.9 µM.

As for `C=Cc1c(CNC(=O)c2cnn3cccnc23)oc2c(C(=O)OC)cc(C)cc12` [EXAMPLE 124, Methyl 5-methyl-2-((pyrazolo[1,5-a]pyrimidine-3-carboxamido)methyl)-3-vinylbenzofuran-7-carboxylate], the figures for the EC50 in assay [1] and in assay [2] were 5.7 µM and 6.7 µM, respectively.

`COC(=O)c1cc(F)c(F)c2cc(CN3CCc4ccncc4C3=O)oc12` [EXAMPLE 125, Methyl 4,5-difluoro-2-((1-oxo-3,4-dihydro-2,7-naphthyridin-2(1H)-yl)methyl)benzofuran-7-carboxylate]: the results for the EC50 in assay [1] and in assay [2] were 3.9 µM and 4.4 µM, respectively.

On to `COC(=O)c1c(F)c(F)cc2cc(CNC(=O)c3cnn4cccnc34)oc12` [EXAMPLE 126, Methyl 5,6-difluoro-2-((pyrazolo[1,5-a]pyrimidine-3-carboxamido)methyl)benzofuran-7-carboxylate], for which the results for the EC50 in assay [1] and in assay [2] were 1.4 µM and 1.6 µM, respectively.

`COC(=O)c1c(O)c(Cl)cc2cc(CNC(=O)c3cnn4cccnc34)oc12` [EXAMPLE 127, Methyl 5-chloro-6-hydroxy-2-((pyrazolo[1,5-a]pyrimidine-3-carboxamido)methyl)benzofuran-7-carboxylate]: the EC50 in assay [1] is 4.7 µM; in assay [2], 5.6 µM.

For `COc1ccn2ncc(C(=O)NCc3cc4cc(Cl)cc(C(=O)O)c4o3)c2n1` [EXAMPLE 139, 5-Chloro-2-((5-methoxypyrazolo[1,5-a]pyrimidine-3-carboxamido)methyl)benzofuran-7-carboxylic acid], the EC50 in assay [1] is 90 µM; in assay [2] it was over 100 µM.

In the case of `Cc1cc(C(=O)O)c2oc(CNC(=O)c3cnn4cccnc34)cc2c1` [EXAMPLE 158, 5-methyl-2-((pyrazolo[1,5-a]pyrimidine-3-carboxamido)methyl)benzofuran-7-carboxylic acid], the EC50 in assay [1] stood at 63 µM; in assay [2], 52 µM.

Take `O=C(O)c1cc(F)cc2c(Cl)c(CNC(=O)c3cnn4cccnc34)oc12` [EXAMPLE 172, 3-chloro-5-fluoro-2-((pyrazolo[1,5-a]pyrimidine-3-carboxamido)methyl)benzofuran-7-carboxylic acid]: the EC50 came out at 62 µM in assay [1] and 74 µM in assay [2].

Consider `O=C(O)c1cc(Cl)cc2c(Cl)c(CNC(=O)c3cnn4cccnc34)oc12` [EXAMPLE 174, 3,5-Dichloro-2-((pyrazolo[1,5-a]pyrimidine-3-carboxamido)methyl)benzofuran-7-carboxylic acid], for which the values for the EC50 in assay [1] and in assay [2] were 83 µM and 91 µM, respectively.

For `Cc1cc(C(=O)O)c2oc(CNC(=O)c3cnn4cc(C)cnc34)c(Cl)c2c1` [EXAMPLE 177, 3-Chloro-5-methyl-2-((6-methylpyrazolo[1,5-a]pyrimidine-3-carboxamido)methyl)benzofuran-7-carboxylic acid], the values for the EC50 in assay [1] and in assay [2] were 87 µM and over 100 µM, respectively.

In the case of `Cc1cc(C(=O)O)c2oc(CNC(=O)c3cncc4cccnc34)c(Cl)c2c1` [EXAMPLE 178, 2-((1,6-naphthyridine-8-carboxamido)methyl)-3-chloro-5-methylbenzofuran-7-carboxylic acid], the values for the EC50 in assay [1] and in assay [2] were 42 µM and 50 µM, respectively.

On to `Cc1cc(C(=O)O)c2oc(CNC(=O)c3cncc4cccnc34)cc2c1` [EXAMPLE 192, 2-((1,6-naphthyridine-8-carboxamido)methyl)-5-methylbenzofuran-7-carboxylic acid], for which the EC50 in assay [1] came to 79 µM; in assay [2], 94 µM.

For the molecule `CCOC(=O)c1cccc2cc(CN3Cc4ccncc4C3=O)oc12` [EXAMPLE 203, Ethyl 2-((3-oxo-1,3-dihydro-2H-pyrrolo[3,4-c]pyridin-2-yl)methyl)benzofuran-7-carboxylate], the results for the EC50 in assay [1] and in assay [2] were 44 µM and 65 µM, respectively.

`O=C(OCC(F)(F)F)c1cccc2cc(CN3Cc4ccncc4C3=O)oc12` [EXAMPLE 204, 2,2,2-Trifluoroethyl 2-((3-oxo-1,3-dihydro-2H-pyrrolo[3,4-c]pyridin-2-yl)methyl)benzofuran-7-carboxylate]: the results for the EC50 in assay [1] and in assay [2] were 32 µM and 41 µM, respectively.

Turning to `CCOC(=O)c1cccc2cc(CN3CCc4ccncc4C3=O)oc12` [EXAMPLE 205, Ethyl 2-((1-oxo-3,4-dihydro-2,7-naphthyridin-2(1H)-yl)methyl)benzofuran-7-carboxylate], the values for the EC50 in assay [1] and in assay [2] were 9.8 µM and 9.9 µM, respectively.

Consider `CC(C)OC(=O)c1cccc2cc(CN3CCc4ccncc4C3=O)oc12` [EXAMPLE 206, Isopropyl 2-((1-oxo-3,4-dihydro-2,7-naphthyridin-2(1H)-yl)methyl)benzofuran-7-carboxylate], for which the values for the EC50 in assay [1] and in assay [2] were 13 µM and 12 µM, respectively.

As to `O=C(OC1CC1)c1cccc2cc(CN3CCc4ccncc4C3=O)oc12` [EXAMPLE 207, Cyclopropyl 2-((1-oxo-3,4-dihydro-2,7-naphthyridin-2(1H)-yl)methyl)benzofuran-7-carboxylate], the EC50 in assay [1] is 9.2 µM; in assay [2] it was 17 µM.

Turning to `O=C(OC(C(F)(F)F)C(F)(F)F)c1cccc2cc(CN3CCc4ccncc4C3=O)oc12` [EXAMPLE 209], the EC50 in assay [1] was 18 µM; in assay [2], 19 µM.

As for `O=C(OCCO)c1cccc2cc(CN3CCc4ccncc4C3=O)oc12` [EXAMPLE 211, 2-Hydroxyethyl 2-((1-oxo-3,4-dihydro-2,7-naphthyridin-2(1H)-yl)methyl)benzofuran-7-carboxylate], the concentration for a half-maximal effect (EC50) in assay [1] came out at 23 µM; in assay [2], 31 µM.

Take `CC(F)(F)COC(=O)c1cccc2cc(CN3CCc4ccncc4C3=O)oc12` [EXAMPLE 212, 2,2-Difluoropropyl 2-((1-oxo-3,4-dihydro-2,7-naphthyridin-2(1H)-yl)methyl)benzofuran-7-carboxylate]: the EC50 was 52 µM in assay [1] and 58 µM in assay [2].

`O=C(OCC(F)(F)C(F)F)c1cccc2cc(CN3CCc4ccncc4C3=O)oc12` [EXAMPLE 213, 2,2,3,3-Tetrafluoropropyl 2-((1-oxo-3,4-dihydro-2,7-naphthyridin-2(1H)-yl)methyl)benzofuran-7-carboxylate]: the EC50 amounted to 79 µM in assay [1] and 86 µM in assay [2].

With `O=C(OCC(F)F)c1cccc2cc(CN3CCc4ccncc4C3=O)oc12` [EXAMPLE 214, 2,2-Difluoroethyl 2-((1-oxo-3,4-dihydro-2,7-naphthyridin-2(1H)-yl)methyl)benzofuran-7-carboxylate], the EC50 is 8.2 µM in assay [1] and 9.3 µM in assay [2].

As for `O=C(OCC(F)(F)F)c1cccc2cc(CN3CCc4ccncc4C3=O)oc12` [EXAMPLE 215, 2,2,2-Trifluoroethyl 2-((1-oxo-3,4-dihydro-2,7-naphthyridin-2(1H)-yl)methyl)benzofuran-7-carboxylate], the EC50 in assay [1] was 12 µM; in assay [2], 14 µM.

Turning to `O=C(NCc1cc2cccc(C(=O)OCC(F)(F)F)c2o1)c1cnccn1` [EXAMPLE 216, 2,2,2-Trifluoroethyl 2-((pyrazine-2-carboxamido)methyl)benzofuran-7-carboxylate], the EC50 was 12 µM in assay [1] and 17 µM in assay [2].

`O=C(OCC(F)(F)F)c1cccc2cc(CNC(=O)c3cnn4cccnc34)oc12` [EXAMPLE 217, 2,2,2-Trifluoroethyl 2-((pyrazolo[1,5-a]pyrimidine-3-carboxamido)methyl)benzofuran-7-carboxylate]: the EC50 in assay [1] was determined as 1.3 µM; in assay [2], 1.6 µM.

In the case of `CC(OC(=O)c1cccc2cc(CNC(=O)c3cnn4cccnc34)oc12)C(F)(F)F` (centres unmarked) [EXAMPLE 218, 1,1,1-Trifluoropropan-2-yl 2-((pyrazolo[1,5-a]pyrimidine-3-carboxamido)methyl)benzofuran-7-carboxylate], the results for the concentration giving a half-maximal response (EC50) in assay [1] and in assay [2] were 5.5 µM and 4.4 µM, respectively.
